ChEMBL document CHEMBL5316276, “Discovery of the First Lactate Dehydrogenase Proteolysis Targeting Chimera Degrader for the Treatment of Pancreatic Cancer” (J Med Chem, 2023)
Activity calls are given as the source filed them. The rule behind the calls is not given here.

How the values were obtained:
PANC-1 = experiment: Antiproliferative activity against human PANC-1 cells assessed as cell growth inhibition incubated for 72 hrs by WST-8 assay; format: functional
[1] = target: T1, von Hippel-Lindau disease tumor suppressor/L-lactate dehydrogenase A chain (Homo sapiens) (UniProt P00338+P40337); experiment: Protac activity at VHL E3 ligase/LDHA in human MIA PaCa-2 cells assessed as induction of LDHA degradation at 0.3 to 3 uM incubated for 24 hrs by Western blotting analysis; format: cell-based; settings: dose 0.3-3 µM
BXPC-3 = experiment: Antiproliferative activity against human BXPC-3 cells assessed as cell growth inhibition incubated for 72 hrs by WST-8 assay; format: functional, cell-based
[2] = target: T1, von Hippel-Lindau disease tumor suppressor/L-lactate dehydrogenase A chain (Homo sapiens); experiment: Protac activity at VHL/LDHA in human BXPC-3 cells assessed as induction of LDHA degradation at 0.3 to 3 uM incubated for 24 hrs by Western blotting analysis; format: cell-based; settings: dose 0.3-3 µM
MIA PaCa-2 = experiment: Antiproliferative activity against human MIA PaCa-2 cells assessed as cell growth inhibition incubated for 72 hrs by WST-8 assay; format: functional
[3] = target: T1, von Hippel-Lindau disease tumor suppressor/L-lactate dehydrogenase A chain (Homo sapiens); experiment: Protac activity at VHL E3 ligase/LDHA in human PANC-1 cells assessed as induction of LDHA degradation at 10 uM incubated for 48 hrs by Western blotting analysis; format: cell-based
[4] = target: T2, L-lactate dehydrogenase B chain (Homo sapiens, UniProt P07195); experiment: Inhibition of human LDHB
[5] = target: T3, L-lactate dehydrogenase A chain (Homo sapiens, UniProt P00338); experiment: Inhibition of human LDHA
[6] = target: T2, L-lactate dehydrogenase B chain; experiment: Inhibition of recombinant human LDHB
[7] = target: T3, L-lactate dehydrogenase A chain; experiment: Inhibition of recombinant human LDHA

NS(=O)(=O)c1ccc(Cc2c(-c3cccc(-c4ccccc4)c3)nn(-c3nc(C(=O)O)cs3)c2CC2CC2)cc1
GI50 (PANC-1): > 30000 nM
Activity [1]: inactive
inhibition (BXPC-3): inactive
Activity [2]: inactive
GI50 (MIA PaCa-2): > 30000 nM

Cc1ncsc1-c1ccc(CNC(=O)[C@@H]2C[C@@H](O)CN2C(=O)[C@@H](NC(=O)CCCCCCC(=O)NCCCCC#Cc2cccc(-c3nn(-c4nc(C(=O)O)cs4)c(CC4CC4)c3Cc3ccc(S(N)(=O)=O)cc3)c2)C(C)(C)C)cc1
Activity [3]: Active

Cc1ncsc1-c1ccc(CNC(=O)[C@@H]2C[C@@H](O)CN2C(=O)[C@@H](NC(=O)CCCCCC(=O)NCCCCC#Cc2cccc(-c3nn(-c4nc(C(=O)O)cs4)c(CC4CC4)c3Cc3ccc(S(N)(=O)=O)cc3)c2)C(C)(C)C)cc1
Activity [3]: Active

Cc1ccc(C#Cc2cccc(-c3nn(-c4nc(C(=O)O)cs4)c(CC4CC4)c3Cc3ccc(S(N)(=O)=O)c(F)c3)c2)s1
IC50 [4]: 5 nM
IC50 [5]: 3 nM

Cc1ncsc1-c1ccc(CNC(=O)[C@@H]2C[C@@H](O)CN2C(=O)[C@@H](NC(=O)CCCCC(=O)NCCCCC#Cc2cccc(-c3nn(-c4nc(C(=O)O)cs4)c(CC4CC4)c3Cc3ccc(S(N)(=O)=O)cc3)c2)C(C)(C)C)cc1
Activity [3]: Active

Cc1ncsc1-c1ccc(CNC(=O)[C@@H]2C[C@@H](OCc3ccccc3)CN2C(=O)[C@@H](NC(=O)CCCCCCCCCCCC(=O)NCCCCC#Cc2cccc(-c3nn(-c4nc(C(=O)O)cs4)c(CC4CC4)c3Cc3ccc(S(N)(=O)=O)cc3)c2)C(C)(C)C)cc1
IC50 [6]: 43 nM
IC50 [7]: 2.6 nM
